Data as given in paper PMC8506611, “Discovery and Characterization of Novel Antagonists of the Proinflammatory Orphan Receptor GPR84” (ACS Pharmacology & Translational Science, 2021).
Several values for one entry are separate records, joined by “and”; a condition that tells them apart may be missing. Equal values may be shown once. One block for each compound: values may come before it.

Key:
[1] = biological target: T1, human GPR84-Gαi2 fusion protein (Homo sapiens, UniProt Q9NQS5); test: [^35S]GTPγS binding assay, membranes of Flp-In TREx 293 cells expressing human GPR84-Gαi2; format: biochemical; details: for pA2: Gaddum/Schild analysis, shifts in potency of 2-HTP, mean ± SEM; for Gaddum/Schild slope: Schild plots versus 2-HTP
T1 sequence (Q9NQS5 whole entry, the tested form may be a part): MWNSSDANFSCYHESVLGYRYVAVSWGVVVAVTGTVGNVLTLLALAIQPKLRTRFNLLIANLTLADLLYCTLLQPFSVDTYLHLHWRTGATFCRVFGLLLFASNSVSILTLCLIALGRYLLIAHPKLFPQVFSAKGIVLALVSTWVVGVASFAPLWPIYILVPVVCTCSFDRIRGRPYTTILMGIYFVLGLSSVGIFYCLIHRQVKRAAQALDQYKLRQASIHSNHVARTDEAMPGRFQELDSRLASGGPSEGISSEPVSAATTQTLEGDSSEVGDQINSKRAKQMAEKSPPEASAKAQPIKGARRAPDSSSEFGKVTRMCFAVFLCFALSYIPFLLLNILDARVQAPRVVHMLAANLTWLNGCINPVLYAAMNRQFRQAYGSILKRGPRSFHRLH
T1 sequence (P04899 2-355, further chain): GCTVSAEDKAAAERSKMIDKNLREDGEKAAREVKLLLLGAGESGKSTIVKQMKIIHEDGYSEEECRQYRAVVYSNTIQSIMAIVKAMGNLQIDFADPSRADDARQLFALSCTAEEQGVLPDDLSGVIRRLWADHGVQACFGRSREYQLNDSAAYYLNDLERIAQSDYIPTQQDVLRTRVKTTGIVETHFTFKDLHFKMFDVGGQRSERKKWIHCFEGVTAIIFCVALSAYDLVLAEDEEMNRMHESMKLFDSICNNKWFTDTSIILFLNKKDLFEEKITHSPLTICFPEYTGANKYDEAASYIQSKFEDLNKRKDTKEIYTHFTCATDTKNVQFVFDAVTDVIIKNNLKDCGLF
Protocol: (§1) All data are presented as means ± SEM of at least three independent experiments. Data analysis and curve fitting was carried out using the GraphPad Prism software package version 8 (GraphPad, San Diego). […] In case of inhibition experiments with antagonists, an equivalent analysis was followed to fit an inverse sigmoidal curve. To perform the statistical analysis of curve parameters, data from multiple experiments were fitted independently and resulting curve fit values were analyzed with indicated tests. Antagonism experiments carried out with multiple defined concentrations of antagonist were fit to a global Gaddum/Schild EC50 shift equation to estimate pA2 values for the antagonist. For radioligand binding data, saturation binding curves were generated by fitting the specific binding, which was obtained by subtracting nonspecific from total binding, to a one site specific binding model that allows calculation of Kd values for the radioligand at wild-type and mutant receptors.

[2] = tested on: mouse GPR84-Gαi2 fusion protein; test: [^35S]GTPγS binding assay, membranes of Flp-In TREx 293 cells expressing mouse GPR84-Gαi2; format: biochemical
Protocol: (§2) All data are presented as means ± SEM of at least three independent experiments. Data analysis and curve fitting was carried out using the GraphPad Prism software package version 8 (GraphPad, San Diego). For functional assays the concentration–response data were plotted on a log axis, with the untreated vehicle control plotted at 1 log unit lower than the lowest ligand concentration and fitted to a three parameter sigmoidal curve with the Hill slope constrained to equal 1. In case of inhibition experiments with antagonists, an equivalent analysis was followed to fit an inverse sigmoidal curve. To perform the statistical analysis of curve parameters, data from multiple experiments were fitted independently and resulting curve fit values were analyzed with indicated tests. Antagonism experiments carried out with multiple defined concentrations of antagonist were fit to a global Gaddum/Schild EC50 shift equation to estimate pA2 values for the antagonist. For radioligand binding data, saturation binding curves were generated by fitting the specific binding, which was obtained by subtracting nonspecific from total binding, to a one site specific binding model that allows calculation of Kd values for the radioligand at wild-type and mutant receptors.

mouse GPR84 = biological target: T2, mouse GPR84 (Mus musculus, UniProt Q8CIM5); test: cAMP regulation assay in CHO cells expressing mouse GPR84; format: cell-based; details: versus EC80 of 6-OAU
T2 construct: expressed in transfected cells
T2 sequence (Q8CIM5 whole entry): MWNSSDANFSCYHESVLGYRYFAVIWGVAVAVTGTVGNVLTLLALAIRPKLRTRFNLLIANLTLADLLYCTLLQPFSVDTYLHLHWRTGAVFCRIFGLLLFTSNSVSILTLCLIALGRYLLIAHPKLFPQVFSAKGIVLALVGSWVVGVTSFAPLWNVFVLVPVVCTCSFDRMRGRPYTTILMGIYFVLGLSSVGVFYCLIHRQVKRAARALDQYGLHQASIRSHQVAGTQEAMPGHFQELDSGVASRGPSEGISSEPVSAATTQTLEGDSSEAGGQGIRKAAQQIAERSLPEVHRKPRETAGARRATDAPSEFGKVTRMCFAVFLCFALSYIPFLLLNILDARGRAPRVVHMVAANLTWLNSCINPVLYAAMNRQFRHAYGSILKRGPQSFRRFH

rat GPR84 = biological target: T3, rat GPR84 (Rattus norvegicus, UniProt D4ACK0); test: cAMP regulation assay in CHO cells expressing rat GPR84; format: cell-based; details: versus EC80 of 6-OAU
T3 construct: expressed in transfected cells
T3 sequence (D4ACK0 1-396): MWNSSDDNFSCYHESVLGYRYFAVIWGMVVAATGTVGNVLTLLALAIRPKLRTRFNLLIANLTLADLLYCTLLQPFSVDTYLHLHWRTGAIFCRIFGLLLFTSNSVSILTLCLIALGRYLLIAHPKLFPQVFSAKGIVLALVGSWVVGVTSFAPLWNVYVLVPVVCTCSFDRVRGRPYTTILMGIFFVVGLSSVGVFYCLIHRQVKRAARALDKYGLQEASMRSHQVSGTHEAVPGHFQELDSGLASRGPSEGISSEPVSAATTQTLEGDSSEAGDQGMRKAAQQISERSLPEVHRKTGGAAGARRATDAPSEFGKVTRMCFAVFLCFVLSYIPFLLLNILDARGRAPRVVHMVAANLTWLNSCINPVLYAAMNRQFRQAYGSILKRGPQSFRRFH

dog GPR84 = biological target: T4, dog GPR84 (Canis lupus familiaris, UniProt A0A8I3P3M6); test: cAMP regulation assay in CHO cells expressing dog GPR84; format: cell-based; details: versus EC80 of 6-OAU
T4 construct: expressed in transfected cells
T4 sequence (A0A8I3P3M6 1-393): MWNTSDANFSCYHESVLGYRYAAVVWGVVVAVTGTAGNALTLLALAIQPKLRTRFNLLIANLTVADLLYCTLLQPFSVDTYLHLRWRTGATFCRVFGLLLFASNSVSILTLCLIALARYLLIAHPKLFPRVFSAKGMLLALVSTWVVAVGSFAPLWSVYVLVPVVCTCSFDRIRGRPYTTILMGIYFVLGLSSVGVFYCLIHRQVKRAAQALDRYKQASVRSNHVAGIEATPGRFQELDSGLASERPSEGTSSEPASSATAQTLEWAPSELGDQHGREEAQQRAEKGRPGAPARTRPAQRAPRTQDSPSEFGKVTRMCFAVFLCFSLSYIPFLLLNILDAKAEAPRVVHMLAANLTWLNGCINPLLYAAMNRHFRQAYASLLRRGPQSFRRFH

pig GPR84 = biological target: T5, pig GPR84 (Sus scrofa, UniProt I6WJ99); test: cAMP regulation assay in CHO cells expressing pig GPR84; format: cell-based; details: versus EC80 of 6-OAU
T5 construct: expressed in transfected cells
T5 sequence (I6WJ99 1-396): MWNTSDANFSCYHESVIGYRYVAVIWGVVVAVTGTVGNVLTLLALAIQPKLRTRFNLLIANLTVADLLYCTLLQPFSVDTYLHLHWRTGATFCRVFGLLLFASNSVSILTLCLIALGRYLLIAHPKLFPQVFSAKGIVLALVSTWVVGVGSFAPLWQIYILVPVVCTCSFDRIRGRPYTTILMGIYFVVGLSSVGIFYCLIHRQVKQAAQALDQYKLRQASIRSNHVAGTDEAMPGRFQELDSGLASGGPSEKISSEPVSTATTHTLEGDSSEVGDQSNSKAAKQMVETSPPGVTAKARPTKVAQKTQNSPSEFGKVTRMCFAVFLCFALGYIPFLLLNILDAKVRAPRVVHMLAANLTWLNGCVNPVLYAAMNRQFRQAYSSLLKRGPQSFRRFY

macaque GPR84 = macaque GPR84 (Macaca mulatta, UniProt F6W0J1); test: cAMP regulation assay in CHO cells expressing macaque GPR84; format: cell-based; details: versus EC80 of 6-OAU
Chain of macaque GPR84 (F6W0J1 1-396): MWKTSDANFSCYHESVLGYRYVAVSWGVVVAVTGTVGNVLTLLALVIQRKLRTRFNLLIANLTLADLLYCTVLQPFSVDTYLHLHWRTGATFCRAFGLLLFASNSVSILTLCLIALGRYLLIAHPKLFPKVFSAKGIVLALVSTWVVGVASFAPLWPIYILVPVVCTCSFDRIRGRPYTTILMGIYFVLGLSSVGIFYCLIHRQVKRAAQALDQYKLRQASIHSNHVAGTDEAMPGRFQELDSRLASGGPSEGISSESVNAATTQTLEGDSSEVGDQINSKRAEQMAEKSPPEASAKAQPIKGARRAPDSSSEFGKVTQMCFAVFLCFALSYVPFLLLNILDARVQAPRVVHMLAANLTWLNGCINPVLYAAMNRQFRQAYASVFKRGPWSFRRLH

[3] = tested on: Thr^102Ala, Ser^363Gly mouse GPR84; test: [^35S]GTPγS binding assay, Thr102Ala-Ser363Gly mouse GPR84 mutant; format: biochemical
Protocol: (§3) The Stratagene QuikChange method (Stratagene, Agilent Technologies, Santa Clara, CA) was used to introduce alterations into FLAG-human GPR84-Gαi2 or FLAG-mouse GPR84-Gαi2. Primers utilized for mutagenesis were provided by MWG Operon (Acton, UK). Template DNA was digested with DpnI to leave only the newly synthesized mutated plasmid, and sequencing was carried out to confirm the introduction of the alterations.
as §2

[4] = tested on: Ala^102Thr, Gly^363Ser human GPR84; test: [^35S]GTPγS binding assay, Ala102Thr-Gly363Ser human GPR84 mutant; format: biochemical
Protocol: as §3, §2

[5] = biological target: T6, ECL3/TM7 chimeric human/mouse GPR84 (Mus musculus, UniProt Q8CIM5, G345V/R346Q/S363G/V354L); test: Antagonism of 2-HTP at ECL3/TM7 human/mouse GPR84 chimera in Flp-In TREx 293 cells; format: cell-based
T6 construct: expressed in transfected cells; host or cells: Flp-In TREx 293 cells
T6 sequence (Q8CIM5 whole entry G345V/R346Q/V354L/S363G): as the sequence (Q8CIM5 whole entry) above, with G345V, R346Q, V354L, S363G counted along it
Text: (§4) Chimeric human-mouse GPR84-HA constructs were generated using synthetic DNA sequences purchased from Eurofins Genomics (Luxembourg), that were then subcloned in-frame into the BamH1 and Xho1 sites of pcDNA5/FRT/TO.

Humanized mGPR84 = biological target: T7, Humanized mGPR84 (Homo sapiens, UniProt Q9NQS5, A294V/A296R/A298P/D231Q/D276G/G248R/H223R/H226Q/I278G/I301T/K216G/K284Q/K289R/K302A/L245V/M286I/N225H/N279I/P291L/P300E/P308T/Q210R/Q299R/Q379H/Q48R/R218H/R229G/R237H/R244G/R282A/R390Q/S280R/S295H/S310A/S311P/V274A); test: Antagonism of 2-HTP at humanized mGPR84 chimera in Flp-In TREx 293 cells; format: cell-based; details: all ECL and TMD residues human in mouse backbone
T7 construct: expressed in transfected cells; host or cells: Flp-In TREx 293 cells
T7 sequence (Q9NQS5 with tags, fused parts or gaps with the stated changes): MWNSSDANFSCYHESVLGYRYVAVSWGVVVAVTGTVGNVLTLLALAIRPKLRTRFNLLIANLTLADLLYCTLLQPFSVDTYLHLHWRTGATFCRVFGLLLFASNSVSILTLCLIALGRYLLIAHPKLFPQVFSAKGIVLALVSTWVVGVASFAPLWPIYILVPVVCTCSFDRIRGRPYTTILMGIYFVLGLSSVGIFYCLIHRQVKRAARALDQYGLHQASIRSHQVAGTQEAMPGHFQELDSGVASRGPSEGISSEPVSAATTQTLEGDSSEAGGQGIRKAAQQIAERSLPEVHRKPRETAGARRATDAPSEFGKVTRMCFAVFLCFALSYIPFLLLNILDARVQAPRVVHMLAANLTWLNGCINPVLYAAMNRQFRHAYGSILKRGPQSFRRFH
Text: as §4

[6] = biological target: T8, GPR84 in LPS-treated THP-1 cells (Homo sapiens, UniProt Q9NQS5); test: [^35S]GTPγS binding assay, membranes of LPS-treated THP-1 cells; format: biochemical; details: LPS-treated THP-1 membranes
T8 construct: GPR84 expressed endogenously in human-derived cell lines and tissue; endogenous in cells; host or cells: THP-1 cells, 100 ng/mL LPS for 24 h, membranes
T8 sequence (Q9NQS5 whole entry): as the sequence (Q9NQS5 whole entry, the tested form may be a part) above

[7] = biological target: T1, human GPR84-Gαi2 fusion protein; test: cAMP assay in Flp-In TREx 293 cells expressing human GPR84-Gαi2; format: cell-based
Protocol: cAMP experiments were performed using Flp-In T-REx293 cells induced to express the receptor of interest or CHO-K1 cells stably expressing the orthologue of interest. Experiments were carried out using a homogeneous time-resolved FRET-based detection kit (CisBio, Codolet, France) according to the manufacturer’s protocol. For the assay cells were plated at 5000 cells/well in low-volume 384-well plates. The ability of agonists to inhibit 1 μM forskolin-induced cAMP production was assessed following a preincubation for 15 min with antagonist compounds, then a further 30 min incubation with agonist compounds. Reactions were stopped according to the manufacturer’s instructions and the output was measured with a PHERAstar FS plate reader (BMG Labtech, Aylesbury, UK).

GPR84 in RAW264.7 cells = GPR84 in RAW264.7 cells (Mus musculus, UniProt Q8CIM5); test: [^35S]GTPγS binding assay, membranes of RAW264.7 cells; details: RAW264.7 membranes
Chain of GPR84 in RAW264.7 cells (Q8CIM5 whole entry, the tested form may be a part): as the sequence (Q8CIM5 whole entry) above

[8] = tested on: mouse GPR84-Gαi2 fusion protein; test: [^3H]140 binding assay, membranes expressing mouse GPR84-Gαi2
Protocol: (§5) Binding was initiated by the addition of membranes (5 μg of protein per tube). All assays were performed at 25 °C for 1 h before termination by the addition of ice-cold PBS and vacuum filtration through GF/C glassfibre filter-bottom 96-well microplates. Plates were washed three times with ice-cold PBS then allowed to dry for 2–3 h at room temperature. MicroScint-20 was added to dried filter plates, and radioactivity was quantified by liquid scintillation spectrometry. Specific binding was defined as the difference between binding detected in the presence and absence of 10 μM compound 020.
All data are presented as means ± SEM of at least three independent experiments. Data analysis and curve fitting was carried out using the GraphPad Prism software package version 8 (GraphPad, San Diego). For functional assays the concentration–response data were plotted on a log axis, with the untreated vehicle control plotted at 1 log unit lower than the lowest ligand concentration and fitted to a three parameter sigmoidal curve with the Hill slope constrained to equal 1. In case of inhibition experiments with antagonists, an equivalent analysis was followed to fit an inverse sigmoidal curve. To perform the statistical analysis of curve parameters, data from multiple experiments were fitted independently and resulting curve fit values were analyzed with indicated tests. […]

[9] = tested on: Ala^102Thr, Gly^363Ser human GPR84; test: [^3H]140 binding assay, Ala102Thr-Gly363Ser human GPR84-Gαi2
Protocol: as §3, §5
All data are presented as means ± SEM of at least three independent experiments. Data analysis and curve fitting was carried out using the GraphPad Prism software package version 8 (GraphPad, San Diego). […] To perform the statistical analysis of curve parameters, data from multiple experiments were fitted independently and resulting curve fit values were analyzed with indicated tests. […]

[10] = tested on: parental Flp-In TREx 293 cells; test: [^3H]140 binding assay, membranes from parental cells; details: parental cell membranes
Protocol: as §5

[11] = biological target: T8, GPR84 in LPS-treated THP-1 cells; test: [^3H]140 binding assay, membranes of LPS-treated THP-1 cells; details: LPS-treated THP-1 membranes
Protocol: as §1

pA2 [1]: 9.19 ± 0.10
Gaddum/Schild slope [1]: 1.27 ± 0.03
SMILES: CC(=O)OCc1ccc(-c2nc(Cc3c[nH]c4ccccc34)nnc2-c2ccccc2)cc1 [Compound 020, 4-(3-((1H-indol-3-yl)methyl)-6-phenyl-1,2,4-triazin-5-yl)benzyl acetate]
pA2 ([2]; Gaddum/Schild analysis versus 2-HTP, wild-type mouse GPR84): < 6.0
fold higher concentrations than required to antagonize human GPR84 ([2]; limited effects at mouse GPR84): at least 1000 fold

pA2 [1]: 9.31 ± 0.10
Gaddum/Schild slope [1]: 1.14 ± 0.03
SMILES: CC(=O)OCc1ccc(-c2nnc(Cc3c[nH]c4ccccc34)nc2-c2ccccc2)cc1 [Compound 021, 4-(3-((1H-indol-3-yl)methyl)-5-phenyl-1,2,4-triazin-6-yl)benzyl acetate]

SMILES: c1ccc(-c2nnc(Cc3c[nH]c4ccccc34)nc2-c2ccccc2)cc1 [Compound 140, 3-((5,6-Diphenyl-1,2,4-triazin-3-yl)methyl)-1H-indole]
IC50 (mouse GPR84): > 10000 nM
IC50 (rat GPR84): 8700 nM
IC50 (dog GPR84): 8.1 nM
IC50 (pig GPR84): 5.6 nM
IC50 (macaque GPR84): 6.4 nM

pA2 [1]: 8.07 ± 0.02
SMILES: Ic1ccc(-c2nnc(Cc3c[nH]c4ccccc34)nc2-c2ccc(I)cc2)cc1 [Compound 441, 3-((5,6-Bis(4-iodophenyl)-1,2,4-triazin-3-yl)methyl)-1H-indole]

block of activation promoted by 2-HTP ([1]; EC80 of 2-HTP): fully block
block of activation promoted by 6-OAU ([1]; EC80 of 6-OAU): fully block
pA2 [1]: 8.90 ± 0.08 and 8.9
Gaddum/Schild slope [1]: 1.11 ± 0.04
IC50 ([1]; against an EC80 of embelin): < 100 nM
reversal of activation produced by DIM ([1]; allosteric activator DIM): fully reversed
block of activation by 2-HTP [3]: able to fully block activation by 2-HTP
fold higher affinity than at wild-type mouse GPR84 ([3]; from pA2): at least 5000 fold
fold lower affinity than at wild-type human GPR84 ([3]; from pA2): ~13 fold
pA2 ([3]; versus 2-HTP, mean ± SEM n = 3): 7.78 ± 0.08
block of activation by 2-HTP [4]: unable to block
fold lower affinity than at wild-type human GPR84 ([4]; from pA2): 380 fold
pA2 ([4]; versus 2-HTP, mean ± SEM n = 3): 6.33 ± 0.15
IC50 [5]: 363 nM
affinity at humanized chimera compared with wild-type human receptor (Humanized mGPR84): equal affinity
block of inhibition of forskolin-amplified cAMP levels by 2-HTP ([7]; 2-HTP): fully blocked
block of inhibition of forskolin-amplified cAMP levels by 6-OAU ([7]; 6-OAU): fully blocked
block of 2-HTP-induced [^35S]GTPγS binding (GPR84 in RAW264.7 cells): unable to produce such an effect
SMILES: COc1ccc(-c2nnc(Cc3c[nH]c4ccccc34)nc2-c2ccc(OC)cc2)cc1 [Compound 837, 3-((5,6-Bis(4-methoxyphenyl)-1,2,4-triazin-3-yl)methyl)-1H-indole]
antagonism of mouse GPR84 ([2]; EC80 of 2-HTP): no significant capacity to antagonize
affinity (from pA2) ([2]; wild-type mouse GPR84): < 100 μM
block of 2-HTP-induced [^35S]GTPγS binding [6]: blocked in a concentration-dependent and high potency manner

SMILES: c1ccc(-c2nnc(Cc3c[nH]c4ccccc34)nc2-c2ccccc2)cc1 [[^3H]140, [^3H]3-((5,6-diphenyl-1,2,4-triazin-3-yl)methyl)-1H-indole]
specific binding [8]: unable to detect specific binding
direct binding [9]: not possible to measure binding
specific binding [10]: no specific binding
Bmax [11]: 905 ± 93 fmol/mg membrane protein
